Measured values reported in patent publication US20050064462A1, “Methods, compositions, and kits for predicting the effect of compounds on hot flash symptoms” (priority 2003, published 2005).
“Also recorded” adds a separate entry of the source.

Columns and labels:
Activin Beta E = assay: Differential gene expression in a cell following contact with reference compounds: Activin Beta E; assay type: cell-based; conditions: accession AF089825; cell expressing estrogen receptor or estrogen related receptor, after contact with compound
From the text: (§1) The expression of any gene known by one of skill in the art to be associated with hot flash symptoms, without limitation, can be assessed in the methods of the invention. The present invention provides numerous such genes as described in detail, below. Further, additional genes that are associated with hot flash symptoms can readily be identified by one of skill in the art according to the disclosure of the present invention. For example, a cell that expresses the estrogen receptor or estrogen related receptor can be contacted with a reference compound known to affect hot flash symptoms. The overall expression of genes in the cell following contact with the reference compound can be compared to the overall expression of genes in a similar cell that has not been contacted with the reference compound.
(§2) The expression of such genes to identify genes that are differentially expressed following contact with a compound with a known effect on hot flash symptoms can be monitored by any convenient method known by one of skill in the art. Most advantageously, the expression of many genes, e.g., thousands of genes, is monitored at once using a high throughput method for assessing expression of genes in the presence and absence of compounds known to affect hot flash symptoms. […]

Type II Hexokinase = assay: Differential gene expression in a cell following contact with reference compounds: Type II Hexokinase; assay type: cell-based; conditions: accession D26393; cell expressing estrogen receptor or estrogen related receptor, after contact with compound
From the text: as §1, §2

[1] = tested on: Multi Drug Resistance Gene; assay: Differential gene expression in a cell following contact with reference compounds: Multi Drug Resistance Gene; assay type: cell-based; conditions: accession M81855; cell expressing estrogen receptor or estrogen related receptor, after contact with compound
From the text: as §1, §2

Parvalbumin = assay: Differential gene expression in a cell following contact with reference compounds: Parvalbumin; assay type: cell-based; conditions: accession AF022935; cell expressing estrogen receptor or estrogen related receptor, after contact with compound
From the text: as §1, §2

[2] = tested on: Protein Tyrosine Phosphatase BAD2; assay: Differential gene expression in a cell following contact with reference compounds: BAD2; assay type: cell-based; conditions: accession U02553; cell expressing estrogen receptor or estrogen related receptor, after contact with compound
From the text: as §1, §2

Prolactin = assay: Differential gene expression in a cell following contact with reference compounds: Prolactin; assay type: cell-based; conditions: accession AI175539; cell expressing estrogen receptor or estrogen related receptor, after contact with compound
From the text: as §1, §2

[3] = tested on: Argininosuccinate Synthetase; assay: Differential gene expression in a cell following contact with reference compounds: Argininosuccinate Synthetase; assay type: cell-based; conditions: accession X12459; cell expressing estrogen receptor or estrogen related receptor, after contact with compound
From the text: as §1, §2

[4] = tested on: Ribonucleoside Reductase Nuclear Receptor; assay: Differential gene expression in a cell following contact with reference compounds: RNR-1; assay type: cell-based; conditions: accession L08595; cell expressing estrogen receptor or estrogen related receptor, after contact with compound
From the text: as §1, §2

Interleukin-18 = assay: Differential gene expression in a cell following contact with reference compounds: Interleukin-18; assay type: cell-based; conditions: accession AJ222813; cell expressing estrogen receptor or estrogen related receptor, after contact with compound
From the text: as §1, §2

ARL gene 4 = assay: Differential gene expression in a cell following contact with reference compounds: ARL gene 4; assay type: cell-based; conditions: accession X77235; cell expressing estrogen receptor or estrogen related receptor, after contact with compound
From the text: as §1, §2

Calpain = assay: Differential gene expression in a cell following contact with reference compounds: Calpain; assay type: cell-based; conditions: accession D14478; cell expressing estrogen receptor or estrogen related receptor, after contact with compound
From the text: as §1, §2

EST196325 = assay: Differential gene expression in a cell following contact with reference compounds: EST196325; assay type: cell-based; conditions: accession AA892522; cell expressing estrogen receptor or estrogen related receptor, after contact with compound
From the text: as §1, §2

[5] = tested on: Interleukin-1 β-converting enzyme-related protease CPP32; assay: Differential gene expression in a cell following contact with reference compounds: CPP32; assay type: cell-based; conditions: accession U84410; cell expressing estrogen receptor or estrogen related receptor, after contact with compound
From the text: as §1, §2

EST208064 = assay: Differential gene expression in a cell following contact with reference compounds: EST208064; assay type: cell-based; conditions: accession AI013389; cell expressing estrogen receptor or estrogen related receptor, after contact with compound
From the text: as §1, §2

2-alpha-1 globin = assay: Differential gene expression in a cell following contact with reference compounds: 2-alpha-1 globin; assay type: cell-based; conditions: accession X56325; cell expressing estrogen receptor or estrogen related receptor, after contact with compound
From the text: as §1, §2

Annexin 1 = assay: Differential gene expression in a cell following contact with reference compounds: Annexin 1; assay type: cell-based; conditions: accession AI171962; cell expressing estrogen receptor or estrogen related receptor, after contact with compound
From the text: as §1, §2

N27 = assay: Differential gene expression in a cell following contact with reference compounds: N27; assay type: cell-based; conditions: accession AI014169; cell expressing estrogen receptor or estrogen related receptor, after contact with compound
From the text: as §1, §2

[6] = tested on: HMG-box containing protein 1; assay: Differential gene expression in a cell following contact with reference compounds: HBP1; assay type: cell-based; conditions: accession U09551; cell expressing estrogen receptor or estrogen related receptor, after contact with compound
From the text: as §1, §2

D-binding protein = assay: Differential gene expression in a cell following contact with reference compounds: D-binding protein; assay type: cell-based; conditions: accession J03179; cell expressing estrogen receptor or estrogen related receptor, after contact with compound
From the text: as §1, §2

[7] = tested on: FE65 adaptor protein interacting with beta-amyloid precursor protein intracellular domain; assay: Differential gene expression in a cell following contact with reference compounds: FE65; assay type: cell-based; conditions: accession X60469; cell expressing estrogen receptor or estrogen related receptor, after contact with compound
From the text: as §1, §2

Protein Kinase C type I = assay: Differential gene expression in a cell following contact with reference compounds: Protein Kinase C type I; assay type: cell-based; conditions: accession M13707; cell expressing estrogen receptor or estrogen related receptor, after contact with compound
From the text: as §1, §2

hot flash symptoms = conditions: cited from earlier work

C#C[C@]1(O)CC[C@H]2[C@@H]3[C@H](C)CC4=C(CCC(=O)C4)[C@H]3CC[C@@]21C [Tibolone, tibolone]
Effect on Expression of Activin Beta E (Activin Beta E): Upregulated | Effect on Expression of Type II Hexokinase (HKII) (Type II Hexokinase): Upregulated | Effect on Expression of Multi Drug Resistance Gene (MDR) [1]: Upregulated | Effect on Expression of Parvalbumin (Parvalbumin): Upregulated | Effect on Expression of Protein Tyrosine Phosphatase BAD2 [2]: Upregulated | Effect on Expression of Prolactin (Prolactin): Upregulated | Effect on Expression of Argininosuccinate Synthetase [3]: Upregulated | Effect on Expression of Ribonucleoside Reductase Nuclear Receptor (RNR-1) [4]: Upregulated | Effect on Expression of Interleukin-18 (IL-18) (Interleukin-18): Upregulated | Effect on Expression of ARL gene 4 (ARL gene 4): Upregulated | Effect on Expression of Calpain (Calpain): Upregulated | Effect on Expression of EST196325 (EST196325): Upregulated | Effect on Expression of Interleukin-1 β-converting enzyme-related protease CPP32 [5]: Upregulated | Effect on Expression of EST208064 (EST208064): Upregulated | Effect on Expression of 2-alpha-1 globin (2-alpha-1 globin): Upregulated

O=C(c1ccc(OCCN2CCCCC2)cc1)c1c(-c2ccc(O)cc2)sc2cc(O)ccc12 [Raloxifene, raloxifene]
Effect on Expression of Annexin 1 (EST 21795) (Annexin 1): Upregulated | Effect on Expression of N27 (EST 207724) (N27): Upregulated | Effect on Expression of HMG-box containing protein 1 (HBP1) [6]: Upregulated | Effect on Expression of D-binding protein (D-binding protein): Upregulated | Effect on Expression of FE65 adaptor protein interacting with beta-amyloid precursor protein intracellular domain (FE65) [7]: Upregulated | Effect on Expression of Protein Kinase C type I (PKC type I) (Protein Kinase C type I): Upregulated | subjects experiencing hot flash symptoms of sufficient severity to discontinue therapy (hot flash symptoms; administered in the treatment of osteoporosis): approximately 11%

4-hydroxy tamoxifen
Effect on Expression of Type II Hexokinase (HKII) (Type II Hexokinase): downregulation | Effect on Expression of Protein Tyrosine Phosphatase BAD2 [2]: downregulation | Effect on Expression of Annexin 1 (EST 21795) (Annexin 1): Upregulated | Effect on Expression of N27 (EST 207724) (N27): Upregulated | Effect on Expression of HMG-box containing protein 1 (HBP1) [6]: Upregulated | Effect on Expression of D-binding protein (D-binding protein): Upregulated | Effect on Expression of Protein Kinase C type I (PKC type I) (Protein Kinase C type I): Upregulated | known effect on the incidence of hot flash symptoms (hot flash symptoms; when administered to a subject): increasing effect on hot flash symptoms; also recorded: increase the incidence of hot flash symptoms
